Measurements as given in patent US7342004B2, “Thioether sulphamate steroids as steroid inhibitors and anti-cancer compounds” (Sterix Ltd., priority 2000, dated 2008).

These compounds were tested against CuZnSOD (UniProt P00442) (assay: Superoxide dismutase (SOD) spectrophotometric XTT assay, Protocol 1). Details: read-out: IC 50/μM (+/− SEM) SOD Inhibition, xanthine oxidase/XTT, 24° C., 30 minutes.
Type: biochemical

Row | SMILES | IC50
1 | COc1cc2c(cc1O)CCC1C2CCC2(C)C1CCC2(O)Cc1ccccc1 (stereo not drawn) [Compound 13, 2-methoxy-17α-benzyl-estradiol] | 88 µM
2 | COc1cc2c(cc1O)CCC1C2CCC2(C)C1CCC2(O)Cc1ccc(C(C)(C)C)cc1 (stereo not drawn) [Compound 23, 2-methoxy-17α-(4-tert-butylbenzyl)oestradiol] | > 100 µM

Same assay, conditions: xanthine oxidase/XTT, 24° C., 30 minutes, read-out: IC 50/μM (+/− SEM) SOD Inhibition

Row | SMILES | IC50
3 | CC12CCC3c4cc(I)c(O)cc4CCC3C1CCC2=O (stereo not shown) [Compound 16, 2-iodoestrone] | > 100 µM
4 | CC12CCC3c4cc(C(F)F)c(O)cc4CCC3C1CCC2=O (stereo not shown) [Compound 17, 2-difluoromethylestrone] | > 100 µM
5 | C[S+]([O-])c1cc2c(cc1O)CCC1C2CCC2(C)C(=O)CCC12 (stereo not shown) [Compound 18, 2-methylsulfoxyestrone] | > 100 µM
6 | CC12CCC3c4cc(S(C)(=O)=O)c(O)cc4CCC3C1CCC2=O (stereo not shown) [Compound 19, 2-methylsulfonylestrone] | > 100 µM
7 | CC12CCC3c4cc([N+](=O)[O-])c(O)cc4CCC3C1CCC2=O (stereo not shown) [Compound 20, 2-nitroestrone] | > 100 µM
8 | CCc1cc2c(cc1O)CCC1C2CCC2(C)C(=O)CCC12 (stereo not shown) [Compound 21, 2-ethylestrone] | > 100 µM
9 | COc1cc2c(c([N+](=O)[O-])c1O)CCC1C2CCC2(C)C(=O)CCC12 (stereo not shown) [Compound 22, 2-methoxy-4-nitroestrone] | > 100 µM
10 | CCc1cc2c(cc1OS(N)(=O)=O)CCC1C2CCC2(C)C(=O)CCC12 (stereo not shown) [Compound 26, 2-ethylestrone-3-O-sulphamate] | > 100 µM
11 | CC12CCC3C(=CCc4cc(OS(N)(=O)=O)ccc43)C1CCC2=O (stereo not shown) [Compound 27, equilin-3-O-sulphamate] | > 100 µM
12 | CSc1cc2c(cc1O)CCC1C2CC[C@]2(C)CCCC12 (stereo partly shown) [Compound 28, 2-methylsulfanyl-17-deoxyoestrone] | > 100 µM
13 | COc1cc2c(cc1O)CCC1C2CC[C@]2(C)CCCC12 (stereo partly shown) [Compound 29, 2-methoxy-17-deoxyoestrone] | > 100 µM

The remaining lines, values ahead:

Row | IC50 | SMILES
14 | 10 µM | CSc1cc2c(cc1O)CCC1C2CCC2(C)C(O)CCC12 (stereo not shown) [Compound 1, 2-methylsulfanylestradiol]
15 | 11 µM | CCOc1cc2c(cc1O)CCC1C2CCC2(C)C(O)CCC12 (stereo not shown) [Compound 2, 2-ethoxyestradiol]
16 | 12 µM | COc1cc2c(cc1O)CCC1C2CCC2(C)C(O)CCC12 (stereo not drawn) [Compound 3, 2-methoxy-17β-estradiol, reference compound]
17 | 13 µM | COc1cc2c(cc1O)CCC1C2CCC2(C)C(O)CCC12 (stereo not drawn) [Compound 4, 2-methoxy-17α-estradiol]
18 | 14 µM | COc1cc2c(cc1O)CCC1C2CCC2(C)C(=O)CCC12 (stereo not shown) [Compound 5, 2-methoxyestrone, reference compound]
19 | 14 µM | CCSc1cc2c(cc1O)CCC1C2CCC2(C)C(O)CCC12 (stereo not shown) [Compound 6, 2-ethylsulfanylestradiol]
20 | 19 µM | CCOc1cc2c(cc1O)CCC1C2CCC2(C)C(=O)CCC12 (stereo not shown) [Compound 7, 2-ethoxyestrone]
21 | 79 µM | COc1cc2c(cc1N)CCC1C2CCC2(C)C(=O)CCC12 (stereo not shown) [Compound 9, 2-methoxy-3-aminoestrone]
22 | 81 µM | CC12CCC3c4cc(F)c(O)cc4CCC3C1CCC2=O (stereo not shown) [Compound 11, 2-fluoroestrone]
23 | 83 µM | CC12CCC3c4cc(Cl)c(O)cc4CCC3C1CCC2=O (stereo not shown) [Compound 12, 2-chloroestrone]
24 | 91 µM | COc1cc2c3c(c(=O)oc2cc1O)CCCCC3 [Compound 14, 3-Hydroxy-2-methoxy-6-oxo-8,9,10,11-tetrahydro-7H-cyclohepta-[c][1]benzopyran]
25 | > 100 µM | C=CCc1cc2c(cc1O)CCC1C2CCC2(C)C(=O)CCC12 (stereo not shown) [Compound 15, 2-allylestrone]
